Structures are written as SMILES.

The test deals with Src (Homo sapiens, UniProt P12931). Description: Src kinase inhibition (IC50). The class given is biochemical. The text has this: Other assays are known from the literature and could readily be performed by the person skilled in the art (see, for example, Dhanabal et al., Cancer Res. 59:189-197; Xin et al., J. Biol. Chem. 274:9116-9121; Sheu et al., Anticancer Res. 18:4435-4441; Ausprunk et al., Dev. Biol. 38:237-248; Gimbrone et al., J. Natl. Cancer Inst. 52:413-427; Nicosia et al., In Vitro 18:538-549).
Sequence of Src (P12931 whole entry, species assumed): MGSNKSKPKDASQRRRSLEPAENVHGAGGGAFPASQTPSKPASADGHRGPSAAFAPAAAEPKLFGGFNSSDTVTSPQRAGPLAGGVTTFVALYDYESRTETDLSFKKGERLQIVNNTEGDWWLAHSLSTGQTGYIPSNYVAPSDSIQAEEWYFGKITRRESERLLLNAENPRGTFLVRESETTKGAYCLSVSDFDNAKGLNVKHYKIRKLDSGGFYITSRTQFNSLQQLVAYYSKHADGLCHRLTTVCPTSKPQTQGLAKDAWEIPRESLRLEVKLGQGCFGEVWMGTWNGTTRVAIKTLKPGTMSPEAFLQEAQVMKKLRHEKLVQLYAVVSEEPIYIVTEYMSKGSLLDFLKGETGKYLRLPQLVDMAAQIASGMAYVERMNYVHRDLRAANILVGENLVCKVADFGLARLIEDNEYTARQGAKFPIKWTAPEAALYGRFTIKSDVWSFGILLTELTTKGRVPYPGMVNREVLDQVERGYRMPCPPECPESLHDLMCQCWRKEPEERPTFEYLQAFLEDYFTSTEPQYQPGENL
By IC50 is commonly meant the concentration at which inhibition is half-maximal. A low value points to greater potency. `O=C(C1CCCC1)N1CCc2[nH]c3nccc(Nc4c(Cl)ccc5c4OCO5)c3c2C1` [Example 70, [4-(5-Chloro-benzo[1,3]-dioxol-4-ylamino)-5,7,8,9-tetrahydro-dipyrido[2,3-b;3′,4′-d]pyrrol-6-yl]-cyclopentyl-methanone] yielded an IC50 of 101 to 1000 nM.

`O=C(C1CC1)N1CCc2[nH]c3nccc(Nc4c(Cl)ccc5c4OCO5)c3c2C1` [Example 68, [4-(5-Chloro-benzo[1,3]-dioxol-4-ylamino)-5,7,8,9-tetrahydro-dipyrido[2,3-b;3′,4′-d]pyrrol-6-yl]-cyclopropyl-methanone] registered an IC50 of 101 to 1000 nM.

With `O=C(C1CCC1)N1CCc2[nH]c3nccc(Nc4c(Cl)ccc5c4OCO5)c3c2C1` [Example 69, [4-(5-Chloro-benzo[1,3]-dioxol-4-ylamino)-5,7,8,9-tetrahydro-dipyrido[2,3-b;3′,4′-d]pyrrol-6-yl]-cyclobutyl-methanone], the IC50 fell in the range of 101 to 1000 nM.

`O=C(c1ccccc1)N1CCc2[nH]c3nccc(Nc4c(Cl)ccc5c4OCO5)c3c2C1` [Example 67, [4-(5-Chloro-benzo[1,3]-dioxol-4-ylamino)-5,7,8,9-tetrahydro-dipyrido[2,3-b;3′,4′-d]pyrrol-6-yl]-phenyl-methanone] returned an IC50 of 101 to 1000 nM.

`CC(=O)N1CCc2[nH]c3nccc(Nc4c(Cl)ccc5c4OCO5)c3c2C1` [Example 15, 1-[4-(5-Chloro-benzo[1,3]dioxol-4-ylamino)-5,7,8,9-tetrahydro-dipyrido[2,3-b;3′,4′-d]pyrrol-6-yl]-ethanone] had an IC50 of 11 to 100 nM.

In the case of `O=C(C1CCCCC1)N1CCc2[nH]c3nccc(Nc4c(Cl)ccc5c4OCO5)c3c2C1` [Example 71, [4-(5-Chloro-benzo[1,3]-dioxol-4-ylamino)-5,7,8,9-tetrahydro-dipyrido[2,3-b;3′,4′-d]pyrrol-6-yl]-cyclohexyl-methanone], the IC50 is 101 to 1000 nM.

The values are drawn from patent US8853391B2, “Tricyclic azaindoles” (Merck Patent GmbH, priority 2008, dated 2014).
